Laboratory results as given in US5883240A, “Genetic sequences encoding glucocorticoid dehydrogenases and uses therefor” (Baker Medical Research Institute, priority 1995, dated 1999).

Key:
11 βHSD2 [1] = biological target: T1, 11 βHSD2 (Homo sapiens, UniProt P80365); test: Directionality and end-product inhibition in intact pHSD2 transfected CHOP cells; assay type: cell-based; details: monolayer cultures, 1.5 hours at 37° C., labelled substrate, TLC of culture medium
T1 sequence (P80365 1-405 V148L): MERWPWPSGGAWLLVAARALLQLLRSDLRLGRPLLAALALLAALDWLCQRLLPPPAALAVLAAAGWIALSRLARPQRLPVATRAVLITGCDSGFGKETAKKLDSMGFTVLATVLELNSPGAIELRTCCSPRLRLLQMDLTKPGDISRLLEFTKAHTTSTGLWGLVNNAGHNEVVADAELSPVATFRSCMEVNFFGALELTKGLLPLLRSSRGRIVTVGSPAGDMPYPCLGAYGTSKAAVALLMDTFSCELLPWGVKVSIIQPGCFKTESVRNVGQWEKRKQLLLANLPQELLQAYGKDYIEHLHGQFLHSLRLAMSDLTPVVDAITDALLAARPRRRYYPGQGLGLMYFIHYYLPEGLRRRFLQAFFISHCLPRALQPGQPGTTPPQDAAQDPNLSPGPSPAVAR
Description: To determine directionality and extent of end production inhibition of the enzyme encoded by pHSD2, monolayer cultures of transfected CHOP cells were incubated for 1.5 hours at 37° C. with 1-2 nM labelled substrates plus 10 nM corresponding unlabelled 11-dehydro metabolite (FIG. 2b). The culture medium was then removed, extracted and assayed by TLC for the presence of the 11-dehydro metabolite.

11 βHSD2 [2] = biological target: T1, 11 βHSD2; assay type: biochemical; details: substrate Km, double reciprocal plot, homogenates of pHSD2 transfected CHOP cells, 37° C., mean±SD, n=3
Source text: The efficiency of the dehydrogenase may be further increased by mechanisms such as intracellular compartmentalisation of the enzyme.

11 βHSD2 [3] = biological target: T1, 11 βHSD2; test: Cofactor specificity of glucocorticoid metabolism in homogenates of pHSD2 transfected CHOP cells; assay type: biochemical; details: 1 mM NAD+ or 1 mM NADP+, 1-2 nM tritiated plus 10 nM unlabelled substrate, 37° C., 40 minutes, TLC
Description: CHOP cells were transfected with plasmid pHSD2, which contains an insert encoding 11 βHSD2. After 60 hours incubation in 85 mm plates, cellular homogenates were prepared and assayed for their ability to metabolise glucocorticoid substrates in the presence of 1 mM NAD+, or 1 mM NADP+. Confluent cells were homogenised in 1 ml of homogenisation buffer (0.25M sucrose, 10 MM phosphate, pH 7). Reaction mixtures (500 μl) contained either 40 μl of homogenate plus [^3 H]corticosterone, or 80 μl of homogenate plus [^3 H]cortisol, or 120 μl of homogenate plus [^3 H]dexamethasone, in homogenisation buffer. All reactions contained 1-2 nM tritiated glucocorticoid substrate plus 10 nM unlabelled glucocorticoid substrate. Reaction mixtures were incubated at 37° C. for 40 minutes and steroid metabolites were assayed by thin layer chromatography.

| SMILES | metabolite formation by intact transfected CHOP cells (11 βHSD2 [1]) | Km (11 βHSD2 [2]) [µM] | glucocorticoid metabolism to 11-dehydro metabolite, cofactor dependence (11 βHSD2 [3]) |
| --- | --- | --- | --- |
| C[C@]12CC(=O)[C@H]3[C@@H](CCC4=CC(=O)CC[C@@]43C)[C@@H]1CC[C@@H]2C(=O)CO [11-dehydro corticosterone] | no metabolite formed | – | – |
| C[C@]12C[C@H](O)[C@H]3[C@@H](CCC4=CC(=O)CC[C@@]43C)[C@@H]1CC[C@@H]2C(=O)CO [corticosterone] | converted | 0.0044 ± 0.0012 | only showed significant glucocorticoid metabolism when NAD+, but not NADP+, was included as a cofactor |
| C[C@]12CCC(=O)C=C1CC[C@@H]1[C@@H]2[C@@H](O)C[C@@]2(C)[C@H]1CC[C@]2(O)C(=O)CO [cortisol] | converted | 0.047 ± 0.0018 | only showed significant glucocorticoid metabolism when NAD+, but not NADP+, was included as a cofactor |
| C[C@]12CCC(=O)C=C1CC[C@@H]1[C@@H]2C(=O)C[C@@]2(C)[C@H]1CC[C@]2(O)C(=O)CO [cortisone] | no metabolite formed | – | – |
| C[C@@H]1C[C@H]2[C@@H]3CCC4=CC(=O)C=C[C@]4(C)[C@@]3(F)[C@@H](O)C[C@]2(C)[C@@]1(O)C(=O)CO [dexamethasone] | – | – | only showed significant glucocorticoid metabolism when NAD+, but not NADP+, was included as a cofactor |
